Measurements: patent publication US9200001B2, “Triazolyl PDE10 inhibitors” (Merck Sharp & Dohme Corp., priority 2011, dated 2015)

Biological target: human PDE10A2 (Homo sapiens (Human), UniProt Q9Y233)
Assay: PDE10 fluorescence polarization (IMAP FP) inhibition assay
Assay type: biochemical
Details: FAM-labeled cAMP 50 nM, room temperature, read-out: PDE10a Ki
Protocol: The activity of the compounds in accordance with the present invention as PDE10 inhibitors may be readily determined without undue experimentation using a fluorescence polarization (FP) methodology that is well known in the art (Huang, W., et al., J. Biomol Screen, 2002, 7: 215).
In a typical experiment the PDE10 inhibitory activity of the compounds of the present invention was determined in accordance with the following experimental method. PDE10A2 was amplified from human fetal brain cDNA (Clontech, Mountain View, Calif.) using a forward primer corresponding to nucleotides 56-77 of human PDE10A2 (Accession No. AF127480, Genbank Identifier 4894716), containing a Kozak consensus sequence, and a reverse primer corresponding to nucleotides 2406-2413 of human PDE10A2 (Accession No. AF127480, Genbank Identifier 4894716). Amplification with Easy-A polymerase (Stratagene, La Jolla, Calif.) was 95° C. for 2 minutes followed by thirty three cycles of 95° C. for 40 seconds, 55° C. for 30 seconds, and 72° C. for 2 minutes 48 seconds. Final extension was 72° C. for 7 minutes. The PCR product was TA cloned into pcDNA3.2-TOPO (Invitrogen, Carlsbad, Calif.) according to standard protocol. AD293 cells with 70-80% confluency were transiently transfected with human PDE10A2/pcDNA3.2-TOPO using Lipofectamine 2000 according to manufacturer specifications (Invitrogen, Carlsbad, Calif.). Cells were harvested 48 hours post-transfection and lysed by sonication (setting 3, 10×5 sec pulses) in a buffer containing 20 mM HEPES, 1 mM EDTA and protease inhibitor cocktail (Roche). Lysate was collected by centrifugation at 75,000×g for 20 minutes. Supernatant containing the cytoplasmic fraction was used for evaluation of PDE10A2 activity. The fluorescence polarization assay for cyclic nucleotide phosphodiesterases was performed using an IMAP® FP kit supplied by Molecular Devices, Sunnyvale, Calif. (product # R8139). IMAP® technology has been applied previously to phosphodiesterase assays (Huang, W., et al., J. Biomol Screen, 2002, 7: 215). Assays were performed at room temperature in 384-well microtiter plates with an incubation volume of 20.2 μL. Solutions of test compounds were prepared in DMSO and serially diluted with DMSO to yield 8 μL of each of 10 solutions differing by 3-fold in concentration, at 32 serial dilutions per plate. 100% inhibition is determined using a known PDE10 inhibitor, which can be any compound that is present at 5,000 times its Ki value in the assay described as follows, such as papaverine (see Siuciak, et al. Neuropharmacology (2006) 51:386-396; Becker, et al. Behav Brain Res (2008) 186(2):155-60; Threlfell, et al., J Pharmacol Exp Ther (2009) 328(3):785-795), 2-{4-[pyridin-4-yl-1-(2,2,2-trifluoroethyl)-1H-pyrazol-3-yl]phenoxymethyl}quinoline succinic acid or 2-[4-(1-methyl-4-pyridin-4-yl-1H-pyrazol-3-yl)-phenoxymethyl]quinoline succinic acid (see Schmidt, et al. J Pharmacol Exp Ther (2008) 325:681-690; Threlfall, et al., J Pharmacol Exp Ther (2009) 328(3): 785-795). 0% of inhibition is determined by using DMSO (1% final concentrations).
A Labcyte Echo 555 (Labcyte, Sunnyvale, Calif.) is used to dispense 200 nL from each well of the titration plate to the 384 well assay plate. A solution of enzyme (1/1600 dilution from aliquots; sufficient to produce 20% substrate conversion) and a separate solution of FAM-labeled cAMP PDE from Molecular Devices (product # R7506), at a final concentration of 50 nM are made in the assay buffer (10 mM Tris HCl, pH 7.2, 10 mM MgCl2, 0.05% NaN3 0.01% Tween-20, and 1 mM DTT). The enzyme and the substrate are then added to the assay plates in two consecutive additions of 10 μL, and then shaken to mix. The reaction is allowed to proceed at room temperature for 30 minutes. A binding solution is then made from the kit components, comprised of 80% Solution A, 20% Solution B and binding reagent at a volume of 1600 the total binding solution. […]

Sequence of human PDE10A2 (Q9Y233 267-1055): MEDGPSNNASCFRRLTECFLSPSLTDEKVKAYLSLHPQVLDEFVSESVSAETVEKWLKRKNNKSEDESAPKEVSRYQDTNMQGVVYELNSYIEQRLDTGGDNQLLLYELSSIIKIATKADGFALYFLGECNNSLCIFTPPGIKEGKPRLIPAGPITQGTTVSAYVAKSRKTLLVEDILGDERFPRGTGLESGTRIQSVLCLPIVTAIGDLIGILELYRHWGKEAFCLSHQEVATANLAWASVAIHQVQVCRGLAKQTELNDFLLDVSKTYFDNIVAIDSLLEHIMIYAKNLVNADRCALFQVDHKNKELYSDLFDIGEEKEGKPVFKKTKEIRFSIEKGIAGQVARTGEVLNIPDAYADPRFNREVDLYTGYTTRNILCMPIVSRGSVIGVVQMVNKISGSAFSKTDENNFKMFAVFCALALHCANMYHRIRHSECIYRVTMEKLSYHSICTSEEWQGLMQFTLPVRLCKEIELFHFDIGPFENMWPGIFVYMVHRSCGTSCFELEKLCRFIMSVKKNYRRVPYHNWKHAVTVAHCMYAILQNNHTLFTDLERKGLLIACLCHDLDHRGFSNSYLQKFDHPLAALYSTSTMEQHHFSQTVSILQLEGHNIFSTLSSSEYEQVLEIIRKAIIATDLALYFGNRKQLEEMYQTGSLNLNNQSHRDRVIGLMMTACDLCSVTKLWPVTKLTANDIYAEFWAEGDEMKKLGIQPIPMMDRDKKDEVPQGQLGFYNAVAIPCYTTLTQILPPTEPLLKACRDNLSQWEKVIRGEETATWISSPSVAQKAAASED

| Compound | Ki [nM] |
| --- | --- |
| Cc1nc([C@H]2C[C@@H]2c2nc3ccccc3n2CCF)cc(-n2nc(C)nc2C)n1 [Cpd 103, 2-{(1S,2S)-2-[6-(3,5-dimethyl-1H-1,2,4-triazol-1-yl)-2-methylpyrimidin-4-yl]cyclopropyl}-1-(2-fluoroethyl)-1H-benzimidazole] | 2.9 |
| Cc1nc(C)n(-c2cc([C@@H]3C[C@H]3c3nc4ccccc4n3C)nc(N3CC(C)(O)C3)n2)n1 [Cpd 135, 1-(4-(3,5-dimethyl-1H-1,2,4-triazol-1-yl)-6-((1R,2R)-2-(1-methyl-1H-benzo[d]imidazol-2-yl)cyclopropyl)pyrimidin-2-yl)-3-methylazetidin-3-ol] | 1.1 |
| Cc1nc([C@@H]2C[C@H]2c2nc3ccccc3n2CCN(C)C)cc(-n2nc(C)nc2C)n1 (stereo in doubt) [Cpd 72, 2-(2-{2-[6-(3,5-dimethyl-1H-1,2,4-triazol-1-yl)-2-methylpyrimidin-4-yl]cyclopropyl}-1H-benzimidazol-1-yl)-N,N-dimethylethanamine] | 14.2 |
| Cc1nc([C@@H]2C[C@H]2c2nc3ccccc3n2CC2CCCCO2)cc(-n2nc(C)nc2C)n1 (stereo in doubt) [Cpd 70, 2-{2-[6-(3,5-dimethyl-1H-1,2,4-triazol-1-yl)-2-methylpyrimidin-4-yl]cyclopropyl}-1-(tetrahydro-2H-pyran-2-ylmethyl)-1H-benzimidazole] | 6 |
| Cc1nc([C@H]2C[C@@H]2c2nc3ccccc3n2C)cc(-n2nc(C)nc2-c2cccnc2)n1 (stereo in doubt) [Cpd 81, 1-methyl-2-{2-[2-methyl-6-(3-methyl-5-pyridin-3-yl-1H-1,2,4-triazol-1-yl)pyrimidin-4-yl]cyclopropyl}-1H-benzimidazole] | 12.8 |
| COc1ccc(Cc2nc(C)nn2-c2cc([C@@H]3C[C@H]3c3nc4ccccc4[nH]3)nc(C)n2)cc1OC [Cpd 26, 2-((1R,2R)-2-(6-(5-(3,4-dimethoxybenzyl)-3-methyl-1H-1,2,4-triazol-1-yl)-2-methylpyrimidin-4-yl)cyclopropyl)-1H-benzo[d]imidazole] | 0.005 |
| COc1ccc(Cc2nc(C)nn2-c2cc(C3CC3c3nc4ccccc4n3C)nc(C)n2)cc1OC (centres unmarked) [Cpd 28, 2-(2-(6-(5-(3,4-dimethoxybenzyl)-3-methyl-1H-1,2,4-triazol-1-yl)-2-methylpyrimidin-4-yl)cyclopropyl)-1-methyl-1H-benzo[d]imidazole] | 0.003 |
| Cc1nc(C)n(-c2cc([C@H]3C[C@@H]3c3nc4ccccc4n3C)nc(C3CC3)n2)n1 (relative stereo) [Cpd 112, trans-2-{2-[2-cyclopropyl-6-(3,5-dimethyl-1H-1,2,4-triazol-1-yl)pyrimidin-4-yl]cyclopropyl}-1-methyl-1H-benzimidazole] | 0.68 |
| Cc1nc([C@@H]2C[C@H]2c2nc3ccccc3n2C)cc(-n2nc(C)nc2C2CCOCC2)n1 [Cpd 97, 1-methyl-2-[(1R,2R)-2-{2-methyl-6-[3-methyl-5-(tetrahydro-2H-pyran-4-yl)-1H-1,2,4-triazol-1-yl]pyrimidin-4-yl}cyclopropyl]-1H-benzimidazole] | 1.1 |
| COc1ccc(Cc2nc(C)nn2-c2cc(C3CC3c3nc4ccccc4[nH]3)nc(C)n2)cc1OC (centres unmarked) [Cpd 38, 2-(2-(6-(5-(3,4-dimethoxybenzyl)-3-methyl-1H-1,2,4-triazol-1-yl)-2-methylpyrimidin-4-yl)cyclopropyl)-1H-benzo[d]imidazole] | 0.005 |
| COc1ccc(Cc2nc(C)nn2-c2cc([C@H]3C[C@H]3c3ccc4ncccc4n3)nc(C)n2)cc1OC (relative stereo) [Cpd 34, Cis-2-(2-(6-(5-(3,4-dimethoxybenzyl)-3-methyl-1H-1,2,4-triazol-1-yl)-2-methylpyrimidin-4-yl)cyclopropyl)-1,5-naphthyridine] | 0.068 |
| COc1nc([C@H]2C[C@@H]2c2nc3ccccc3n2C)cc(-n2nc(C)nc2C)n1 (relative stereo) [Cpd 111, trans-2-{2-[6-(3,5-dimethyl-1H-1,2,4-triazol-1-yl)-2-methoxypyrimidin-4-yl]cyclopropyl}-1-methyl-1H-benzimidazole] | 1.3 |
| Cc1nc([C@@H]2C[C@H]2c2nc3ccccc3n2C)cc(-n2nc(C)nc2C)n1 [Cpd 37, 2-((1R,2R)-2-(6-(3,5-dimethyl-1H-1,2,4-triazol-1-yl)-2-methylpyrimidin-4-yl)cyclopropyl)-1-methyl-1H-benzo[d]imidazole] | 1.4 |
| COC[C@H](C)Oc1nc([C@@H]2C[C@H]2c2nc3ccccc3n2C)cc(-n2nc(C)nc2C)n1 [Cpd 67, 2-[(1R,2R)-2-{6-(3,5-dimethyl-1H-1,2,4-triazol-1-yl)-2-[(1S)-2-methoxy-1-methylethoxy]pyrimidin-4-yl]cyclopropyl}-1-methyl-1H-benzimidazole] | 0.9 |
| COc1ccc(Cc2nc(C)nn2-c2cc(/C=C/c3ccc4ccccc4n3)nc(C)n2)cc1OC [Cpd 18, (E)-2-(2-(6-(5-(3,4-dimethoxybenzyl)-3-methyl-1H-1,2,4-triazol-1-yl)-2-methylpyrimidin-4-yl)vinyl)quinoline] | 0.002 |
| Cc1nc(C)n(-c2cc([C@@H]3C[C@H]3c3nc4ccccc4n3C)nc(OCC3(C)CC3)n2)n1 [Cpd 137, 2-((1R,2R)-2-(6-(3,5-dimethyl-1H-1,2,4-triazol-1-yl)-2-((1-methylcyclopropyl)methoxy)pyrimidin-4-yl)cyclopropyl)-1-methyl-1H-benzo[d]imidazole] | 0.84 |
| COc1ccc(Cc2nc(C)nn2-c2cc(CCc3ccc4ncccc4n3)nc(C)n2)cc1OC [Cpd 16, 2-(2-(6-(5-(3,4-dimethoxybenzyl)-3-methyl-1H-1,2,4-triazol-1-yl)-2-methylpyrimidin-4-yl)ethyl)-1,5-naphthyridine] | 0.027 |
| Cc1nc([C@@H]2C[C@H]2c2nc3ccccc3n2C)cc(-n2nc(C)nc2CF)n1 [Cpd 93, 2-[(1R,2R)-2-{6-[5-(fluoromethyl)-3-methyl-1H-1,2,4-triazol-1-yl]-2-methylpyrimidin-4-yl}cyclopropyl]-1-methyl-1H-benzimidazole] | 3.1 |
| Cc1nc(C)n(-c2cc([C@H]3C[C@@H]3c3nc4ccccc4n3C)nc(OCC3CC3)n2)n1 (relative stereo) [Cpd 120, trans-2-{2-[2-(cyclopropylmethoxy)-6-(3,5-dimethyl-1H-1,2,4-triazol-1-yl)pyrimidin-4-yl]cyclopropyl}-1-methyl-1H-benzimidazole] | 1.1 |
| Cc1nc(C2CC2c2nc3ccccc3[nH]2)cc(-n2nc(C)nc2C)n1 (centres unmarked) [Cpd 41, 2-(2-(6-(3,5-dimethyl-1H-1,2,4-triazol-1-yl)-2-methylpyrimidin-4-yl)cyclopropyl)-1H-benzo[d]imidazole] | 6.8 |
| Cc1nc([C@H]2C[C@@H]2c2nc3ccccc3n2C)cc(-n2nc(C)nc2C2CCCCC2)n1 (stereo in doubt) [Cpd 79, 2-{2-[6-(5-cyclohexyl-3-methyl-1H-1,2,4-triazol-1-yl)-2-methylpyrimidin-4-yl]cyclopropyl}-1-methyl-1H-benzimidazole] | 2.5 |
| Cc1nc(C2CC2c2nc3ccccc3n2-c2ccccc2)cc(-n2nc(C)nc2C)n1 (centres unmarked) [Cpd 51, 2-(2-(6-(3,5-dimethyl-1H-1,2,4-triazol-1-yl)-2-methylpyrimidin-4-yl)cyclopropyl)-1-phenyl-1H-benzo[d]imidazole] | 38.8 |
| Cc1ccc(CCc2cc(-n3nc(C)nc3C)nc(C)n2)nc1 [Cpd 50, 4-(3,5-dimethyl-1H-1,2,4-triazol-1-yl)-2-methyl-6-(2-(5-methylpyridin-2-yl)ethyl)pyrimidine] | 0.14 |
